Data published in PubChem BioAssay AID248 (DTP/NCI, 2004).
“And” between values parts separate entries of the source, which are not always exact repeats. Equal entries are not always repeated. Toxic doses and inconclusive results are not listed. Cut-off read from the data, not from the text of the source: active = T/C of 150% or more; inactive = T/C below 125%.

Tested on: L1210 leukemia ip in BDF1 mice, survival T/C
Assay: NCI In Vivo Anticancer Drug Screen. Data for tumor model L1210 Leukemia (intraperitoneal) in B6D2F1 (BDF1) mice
Settings: endpoint: mean survival time, higher = longer survival
How it was run: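 Survival endpoint. Drug-treated group vs vehicle group, expressed as T divided by C. Tumor passaged by transplantation.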

[1] = dose: 100.0 mg/kg/injection, schedule: Q04DX002 (ip), vehicle: Klucel (hydroxypropylcellulose) (HPC)
[2] = dose: 200.0 mg/kg/injection, schedule: Q04DX002 (ip), vehicle: Klucel (hydroxypropylcellulose) (HPC)
[3] = dose: 400.0 mg/kg/injection, schedule: Q04DX002 (ip), vehicle: Klucel (hydroxypropylcellulose) (HPC)
[4] = dose: 100.0 mg/kg/injection, schedule: Q04DX003 (ip), vehicle: Klucel (hydroxypropylcellulose) (HPC)
[5] = dose: 100.0 mg/kg/injection, schedule: Q04DX003 (ip), vehicle: saline
[6] = dose: 200.0 mg/kg/injection, schedule: Q04DX003 (ip), vehicle: saline
[7] = dose: 200.0 mg/kg/injection, schedule: Q04DX003 (ip), vehicle: Klucel (hydroxypropylcellulose) (HPC)
[8] = dose: 400.0 mg/kg/injection, schedule: Q04DX003 (ip), vehicle: Klucel (hydroxypropylcellulose) (HPC)
[9] = dose: 100.0 mg/kg/injection, schedule: Q01DX009 (ip), vehicle: saline with Tween-80
[10] = dose: 200.0 mg/kg/injection, schedule: Q01DX009 (ip), vehicle: saline with Tween-80
[11] = dose: 400.0 mg/kg/injection, schedule: Q01DX009 (ip), vehicle: saline with Tween-80
[12] = dose: 100.0 mg/kg/injection, schedule: Q01DX009 (ip), vehicle: Klucel (hydroxypropylcellulose) (HPC)
[13] = dose: 200.0 mg/kg/injection, schedule: Q01DX009 (ip), vehicle: Klucel (hydroxypropylcellulose) (HPC)
[14] = dose: 400.0 mg/kg/injection, schedule: Q01DX009 (ip), vehicle: Klucel (hydroxypropylcellulose) (HPC)
[15] = dose: 100.0 mg/kg/injection, schedule: Q01DX001 (ip), vehicle: saline
[16] = dose: 200.0 mg/kg/injection, schedule: Q01DX001 (ip), vehicle: saline
[17] = dose: 400.0 mg/kg/injection, schedule: Q01DX001 (ip), vehicle: saline

Measured: T/C

Nc1nc(-c2ccc3c(c2)Sc2ccccc2O3)cs1
inactive: dose: 75.0 mg/kg/injection, schedule: Q04DX003 (ip), vehicle: saline 93 % of control | dose: 150.0 mg/kg/injection, schedule: Q04DX003 (ip), vehicle: saline 91 % of control | dose: 300.0 mg/kg/injection, schedule: Q04DX003 (ip), vehicle: saline 91 % of control

COC(OC)c1[nH]c(=S)[nH]c(=O)c1Cc1ccc(Br)cc1
inactive: [1] 97 % of control | [2] 94 % of control | [3] 105 % of control

O=c1[nH]c2ccccc2nc1C(Cl)Cl
inactive: [4] 115 % of control

COC(=O)C(N)CCl (centres undefined)
inactive: dose: 100.0 mg/kg/injection, schedule: Q01DX001 (ip), vehicle: steriod suspending solution 101 % of control | dose: 100.0 mg/kg/injection, schedule: Q01DX009 (ip), vehicle: saline 93 % of control | [5] 106 % of control | dose: 200.0 mg/kg/injection, schedule: Q01DX001 (ip), vehicle: steriod suspending solution 95 % of control | dose: 200.0 mg/kg/injection, schedule: Q01DX009 (ip), vehicle: saline 100 % of control | [6] 102 % of control | dose: 400.0 mg/kg/injection, schedule: Q01DX001 (ip), vehicle: steriod suspending solution 106 % of control | dose: 400.0 mg/kg/injection, schedule: Q01DX009 (ip), vehicle: saline 101 % of control | dose: 400.0 mg/kg/injection, schedule: Q04DX003 (ip), vehicle: saline 104 % of control

CCC1=CC(=O)C(C)=C(C)C1=O
inactive: dose: 25.0 mg/kg/injection, schedule: Q04DX003 (ip), vehicle: other 100 % of control | dose: 50.0 mg/kg/injection, schedule: Q04DX003 (ip), vehicle: other 102 % of control | dose: 100.0 mg/kg/injection, schedule: Q04DX003 (ip), vehicle: other 97 % of control and 102 % of control

CC(=O)OCC1OC(OC(C)=O)C(NC(=O)N(C)C)C(OC(C)=O)C1OC(C)=O (centres undefined)
inactive: dose: 50.0 mg/kg/injection, schedule: Q04DX003 (ip), vehicle: saline 103 % of control | [4] 101 % of control | [5] 106 % of control | [7] 103 % of control | [6] 101 % of control | [8] 103 % of control

O=c1[nH]c2cnccc2c(=O)n1O
inactive: [9] 102 % of control | [10] 93 % of control | [11] 104 % of control

CN1CCC2(CC1)C(=O)N(Nc1ccccc1)C(=O)C2c1ccccc1 (centres undefined)
inactive: [1] 101 % of control | [2] 93 % of control

CCOC(=O)CCC(=O)N(C)CCc1ccc(OC)c(OC)c1
inactive: dose: 25.0 mg/kg/injection, schedule: Q04DX002 (ip), vehicle: Klucel (hydroxypropylcellulose) (HPC) 117 % of control | dose: 50.0 mg/kg/injection, schedule: Q04DX002 (ip), vehicle: Klucel (hydroxypropylcellulose) (HPC) 101 % of control | [1] 101 % of control

O=C(NCCCCCCNC(=O)Nc1ccc(C2=NCCN2)cc1)Nc1ccc(C2=NCCN2)cc1
inactive: dose: 62.0 mg/kg/injection, schedule: Q01DX Z (ip), vehicle: carboxymethylcellulose (CMC) 106 % of control | dose: 125.0 mg/kg/injection, schedule: Q01DX Z (ip), vehicle: carboxymethylcellulose (CMC) 92 % of control | dose: 250.0 mg/kg/injection, schedule: Q01DX Z (ip), vehicle: carboxymethylcellulose (CMC) 109 % of control | dose: 500.0 mg/kg/injection, schedule: Q01DX Z (ip), vehicle: carboxymethylcellulose (CMC) 102 % of control

OC(c1ccccc1)(c1ccccc1)c1nc2ccccc2[nH]1
inactive: dose: 75.0 mg/kg/injection, schedule: Q01DX009 (ip), vehicle: Klucel (hydroxypropylcellulose) (HPC) 97 % of control | dose: 150.0 mg/kg/injection, schedule: Q01DX009 (ip), vehicle: Klucel (hydroxypropylcellulose) (HPC) 87 % of control | dose: 300.0 mg/kg/injection, schedule: Q01DX009 (ip), vehicle: Klucel (hydroxypropylcellulose) (HPC) 104 % of control

O=c1cc(CCl)[nH]nc1CCl
inactive: dose: 6.0 mg/kg/injection, schedule: Q04DX003 (ip), vehicle: saline with Tween-80 110 % of control | dose: 9.5 mg/kg/injection, schedule: Q04DX003 (ip), vehicle: saline with Tween-80 110 % of control | dose: 14.5 mg/kg/injection, schedule: Q04DX003 (ip), vehicle: saline with Tween-80 117 % of control | dose: 22.0 mg/kg/injection, schedule: Q04DX003 (ip), vehicle: saline with Tween-80 115 % of control and 124 % of control | dose: 25.0 mg/kg/injection, schedule: Q04DX003 (ip), vehicle: saline with Tween-80 115 % of control | dose: 33.0 mg/kg/injection, schedule: Q04DX003 (ip), vehicle: saline with Tween-80 124 % of control | dose: 75.0 mg/kg/injection, schedule: Q04DX003 (ip), vehicle: saline with Tween-80 113 % of control | dose: 100.0 mg/kg/injection, schedule: Q04DX003 (ip), vehicle: saline with Tween-80 111 % of control

Cc1cc(-c2ccccc2)c(-c2ccccn2)c2ccccc12
inactive: [4] 96 % of control | [7] 91 % of control | [8] 86 % of control

Nc1nc(-c2cc(Br)ccc2N=NN2CCCCC2)nc2ccc(Br)cc12
inactive: [1] 86 % of control | [2] 89 % of control | [3] 99 % of control

CC/C(C)=N\NC(=O)CC(=O)N/N=C(/C)CC
inactive: [12] 95 % of control | [13] 101 % of control | [14] 100 % of control

O=C1c2ccccc2C(=O)c2c1ccc1c2CCCC1
inactive: dose: 50.0 mg/kg/injection, schedule: Q01DX009 (ip), vehicle: Klucel (hydroxypropylcellulose) (HPC) 91 % of control | [12] 94 % of control | [13] 100 % of control

O=C(CSCc1ccc([N+](=O)[O-])cc1)c1ccc(Br)cc1
inactive: [15] 92 % of control | [16] 95 % of control | [17] 92 % of control

NC(=O)Nc1ccc(SCC(=O)O)cc1
inactive: [1] 106 % of control | [2] 95 % of control | [3] 113 % of control

N#CC(c1ccccc1)C(c1ccccc1)c1ccccc1 (centres undefined)
inactive: dose: 50.0 mg/kg/injection, schedule: Q01DX001 (ip), vehicle: saline 102 % of control | [15] 102 % of control | [16] 98 % of control | [17] 98 % of control

COc1cc(C(=O)OCCN(C(C)C)C(C)C)cc(OC)c1OC
inactive: [5] 101 % of control | [6] 95 % of control

O=C(NCCc1c[nH]c2ccccc12)C(=O)NCCc1c[nH]c2ccccc12
inactive: [4] 108 % of control | [7] 93 % of control | [8] 93 % of control

[O-][N+]1(c2ccc(Cl)cc2)CC[N+]([O-])(c2ccc(Cl)cc2)CC1 (centres undefined)
inactive: [4] 96 % of control | [7] 94 % of control | [8] 100 % of control

CN1CC2=C(C1)C(N(C(=O)c1ccc(-c3ccccc3)cc1)C(=O)c1ccc(-c3ccccc3)cc1)=NCN2
inactive: [12] 97 % of control | [13] 94 % of control | [14] 94 % of control

CCC(=O)O[C@H]1CC[C@H]2[C@@H]3C[C@H](F)C4=CC(=O)CC[C@]4(C)[C@H]3CC[C@]12C
inactive: [9] 102 % of control | [10] 93 % of control | [11] 91 % of control
